Assay results taken from US9708336B2, “Metallo-beta-lactamase inhibitors” (priority 2014, dated 2017).
Where two headings read alike, the source gives them in different places.

Experiments:
IMP-1 = IMP-1 (Serratia marcescens, UniProt P52699); experiment: biochemical; type: biochemical
NDM-1 = NDM-1 (Klebsiella pneumoniae, UniProt C7C422); experiment: biochemical; type: biochemical; conditions: read-out: NDM-1 IC50
VIM-1 = VIM-1 (Pseudomonas aeruginosa (strain ATCC 15692 / DSM 22644 / CIP 104116 / JCM 14847 / LMG 12228 / 1C / PRS 101 / PAO1), UniProt A0A0F7KYQ8); experiment: Enzyme activity: determination of IC50, fluorescence assay with CCF2-FA substrate (VIM-1); type: biochemical
[1] = tested on: Escherichia coli expressing NDM-1 (CLB30016); experiment: Antibiotic potentiation activity: synergistic concentration (MITC95) with imipenem, OD600 growth; type: cell-based
Procedure, shortened: (§1)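 Bacteria were grown overnight on agar at 35 °C, diluted 1:100 from saline into 1.1× CAMHB, then given compound with or without imipenem (4 μg/ml in assay, optionally 1 μg/ml). Endpoint: absorbance at 22–24 h.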

[2] = tested on: Serratia marcescens expressing IMP-1 (CL5741); experiment: as above; type: cell-based
Procedure, shortened: as §1

[3] = tested on: Klebsiella pneumoniae expressing VIM-1 (IHMA599644); experiment: as above; type: cell-based
Procedure, shortened: as §1

[4] = IMP-1 enzyme, CCF2-FA substrate, read-out: IMP-1 IC50
[5] = NDM-1 enzyme, CCF2-FA substrate
[6] = VIM-1 enzyme, CCF2-FA substrate, read-out: VIM-1 IC50
[7] = (CLB30016, NDM-1), 95% growth inhibition
[8] = Serratia marcescens CL5741 (IMP-1), 95% growth inhibition
[9] = Klebsiella pneumoniae IHMA599644 (VIM-1), 95% growth inhibition
[10] = fluorescence assay with CCF2-FA substrate, read-out: IMP-1 IC50
[11] = fluorescence assay with CCF2-FA substrate
[12] = fluorescence assay with CCF2-FA substrate, read-out: VIM-1 IC50
[13] = CLB30016 (NDM-1), 95% inhibition of bacterial growth
[14] = CL5741 (IMP-1), 95% inhibition of bacterial growth
[15] = IHMA599644 (VIM-1), 95% inhibition of bacterial growth
[16] = IMP-1 enzyme, CCF2-FA fluorescence assay, read-out: IMP-1 IC50
[17] = NDM-1 enzyme, CCF2-FA fluorescence assay
[18] = Escherichia coli expressing NDM-1 (CLB30016), 95% growth inhibition
[19] = Serratia marcescens expressing IMP-1 (CL5741), 95% growth inhibition
[20] = Klebsiella pneumoniae expressing VIM-1 (IHMA599644), 95% growth inhibition
[21] = concentration giving 95% inhibition of bacterial growth

IMP-1, sequence (P52699 whole entry, looked up): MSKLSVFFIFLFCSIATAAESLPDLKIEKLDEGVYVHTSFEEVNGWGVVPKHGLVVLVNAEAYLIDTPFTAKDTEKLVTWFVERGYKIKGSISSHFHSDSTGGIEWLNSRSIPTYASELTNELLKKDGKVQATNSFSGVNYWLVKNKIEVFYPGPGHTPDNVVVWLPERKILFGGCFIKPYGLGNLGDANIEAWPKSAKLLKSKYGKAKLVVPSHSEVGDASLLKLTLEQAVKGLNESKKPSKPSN
NDM-1, sequence (C7C422 whole entry, looked up, species assumed): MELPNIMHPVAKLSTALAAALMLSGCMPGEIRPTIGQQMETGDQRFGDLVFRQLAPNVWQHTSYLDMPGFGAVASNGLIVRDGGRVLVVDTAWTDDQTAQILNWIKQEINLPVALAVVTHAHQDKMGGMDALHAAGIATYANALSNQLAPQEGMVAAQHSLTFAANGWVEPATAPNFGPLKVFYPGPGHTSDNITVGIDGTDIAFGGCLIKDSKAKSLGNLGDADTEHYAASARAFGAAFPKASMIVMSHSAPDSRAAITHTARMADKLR

Compound | IC50 (IMP-1; [4]) [nM] | IC50 (NDM-1; [5]) [nM] | IC50 (VIM-1; [6]) [nM] | Escherichia coli MITC95 [1, 7] [µM] | Serratia marcescens MITC95 [2, 8] [µM] | Klebsiella pneumoniae MITC95 [3, 9] [µM] | IC50 (IMP-1; [10]) [nM] | IC50 (NDM-1; [11]) [nM] | other results
NS(=O)(=O)c1c(C(F)(F)F)ccc(C2CCCc3sc(C(=O)O)nc32)c1-c1nnn[nH]1 (stereo not drawn) [Example 510, 4-(3-Sulfamoyl-2-(1H-tetrazol-5-yl)-4-(trifluoromethyl)phenyl)-4,5,6,7-tetrahydrobenzo[d]thiazole-2-carboxylic acid] | 47.4 | 3.42 | 12.8 | 50 | 200 | >200 |  |  | 
NC1(c2ccc(-c3ccc(C(F)(F)F)c(S(N)(=O)=O)c3-c3nnn[nH]3)cc2)CCCC1 [Example 729, 4′-(1-aminocyclopentyl)-2-(1H-tetrazol-5-yl)-4-(trifluoromethyl)biphenyl-3-sulfonamide] | 6.97 | 4.85 | 7.37 | 6.25 | 6.25 | 25 |  |  | 
NS(=O)(=O)c1c(C(F)(F)F)ccc(-c2ccc(CN3CCNCC3)cc2)c1-c1nnn[nH]1 [Example 718, 4′-(piperazin-1-ylmethyl)-2-(1H-tetrazol-5-yl)-4-(trifluoromethyl)biphenyl-3-sulfonamide] | 2.4 | 1.51 | 1.73 | 12.5 | 6.25 | 25 |  |  | 
NS(=O)(=O)c1c(C(F)(F)F)ccc(N2CCN(CCCO)CC2)c1-c1nnn[nH]1 [Example 664, 3-[4-(3-hydroxypropyl)piperazin-1-yl]-2-(1H-tetrazol-5-yl)-6-(trifluoromethyl)benzenesulfonamide] | 38.5 | 18.1 | 52 | 0.25 | 0.418 | 6.25 |  |  | 
NS(=O)(=O)c1cccc(-c2cnc3cnccn23)c1-c1nnn[nH]1 [Example 651, 3-imidazo[1,2-a]pyrazin-3-yl-2-(1H-tetrazol-5-yl)benzenesulfonamide] | 900 | 9.85 |  | 1.172 | 37.5 | 6.25 |  |  | IC50 (VIM-1; VIM-1 IC50, VIM-1 enzyme, CCF2-FA substrate): 40.7 nM
N=C(NC1CCNC1)c1ccc(-c2ccc(C(F)(F)F)c(S(N)(=O)=O)c2-c2nn[nH]n2)cc1 (stereo not drawn) [Example 564, N-(pyrrolidin-3-yl)-3′-sulfamoyl-2′-(2H-tetrazol-5-yl)-4′-(trifluoromethyl)biphenyl-4-carboximidamide] | 301 | 262 | 36.3 | 25 | 25 | 50 |  |  | 
NS(=O)(=O)c1c(C(F)(F)F)ccc([C@H]2CC[C@H](N)CC2)c1-c1nnn[nH]1 [Example 820, 3-((1r,4r)-4-aminocyclohexyl)-2-(1H-tetrazol-5-yl)-6-(trifluoromethyl)benzenesulfonamide] |  |  |  |  |  |  | 39.4 | 13.5 | IC50 (VIM-1; [12]): 0.659 nM; Escherichia coli MITC95 [1, 13]: 0.3906 µM; Serratia marcescens MITC95 [2, 14]: 0.7813 µM; Klebsiella pneumoniae MITC95 [3, 15]: 0.7813 µM
NC[C@H]1CC[C@H](c2ccc(C(F)(F)F)c(S(N)(=O)=O)c2-c2nnn[nH]2)CC1 [Example 501, 3-(trans 4-(aminomethyl)cyclohexyl)-2-(1H-tetrazol-5-yl)-6-(trifluoromethyl)benzenesulfonamide] |  | 1.52 | 0.516 | 1.172 | 1.563 | 1.563 |  |  | IC50 (IMP-1): 5.39 nM
NC1CCCC(N2CC(c3ccc(-c4ccc(C(F)(F)F)c(S(N)(=O)=O)c4-c4nnn[nH]4)cc3)C2)C1 (stereo not drawn) [Example 810, 4′-[1-(3-aminocyclohexyl)azetidin-3-yl]-2-(1H-tetrazol-5-yl)-4-(trifluoromethyl)biphenyl-3-sulfonamide] |  |  |  |  |  |  | 8.92 | 7.06 | IC50 (VIM-1; [12]): 26.8 nM; Escherichia coli MITC95 [1, 13]: 3.125 µM; Serratia marcescens MITC95 [2, 14]: 6.25 µM; Klebsiella pneumoniae MITC95 [3, 15]: 100 µM
NS(=O)(=O)c1c(CC(F)(F)F)ccc(-c2ccc(C3CCNCC3)cc2)c1-c1nn[nH]n1 [Example 458, 4′-(piperidin-4-yl)-2-(2H-tetrazol-5-yl)-4-(2,2,2-trifluoroethyl)-[1,1′-biphenyl]-3-sulfonamide] |  |  |  |  |  |  |  |  | IC50 (IMP-1; [16]): 2.39 nM; IC50 (NDM-1; [17]): 22.1 nM; IC50 (VIM-1; VIM-1 enzyme, CCF2-FA fluorescence assay, read-out: VIM-1 IC50): 2.12 nM; Escherichia coli MITC95 [1, 18]: 3.125 µM; Serratia marcescens MITC95 [2, 19]: 0.125 µM; Klebsiella pneumoniae MITC95 [3, 20]: 3.125 µM
NS(=O)(=O)c1cccc(C2CCn3cncc3C2)c1-c1nn[nH]n1 (stereo not drawn) [Example 178, 3-(5,6,7,8-tetrahydroimidazo[1,5-a]pyridin-7-yl)-2-(2H-tetrazol-5-yl)benzenesulfonamide] |  |  |  |  |  |  | 1020 | 28.4 | IC50 (VIM-1; VIM-1 IC50, fluorescence assay with CCF2-FA substrate): 65.5 nM; Escherichia coli expressing NDM-1 (CLB 30016) MITC95 [1, 21]: 0.25 µM; Serratia marcescens expressing IMP-1 (CL5741) MITC95 [2, 21]: 12.5 µM; Klebsiella pneumoniae expressing VIM-1 (IHMA 599644) MITC95 [3, 21]: 9.375 µM
NC[C@H]1CC[C@H](Cc2ccc(-c3ccc(C4CCNC4)cc3)c(-c3nnn[nH]3)c2S(N)(=O)=O)CC1 (stereo partly drawn) [Example 586, 4-(((1r,4r)-4-(aminomethyl)cyclohexyl)methyl)-4′-(pyrrolidin-3-yl)-2-(1H-tetrazol-5-yl)-[1,1′-biphenyl]-3-sulfonamide] | 7.14 | 2.34 | 1.16 | 0.7813 | 1.563 | 1.563 |  |  | 
N[C@]1(c2ccc(-c3ccc(C(F)(F)F)c(S(N)(=O)=O)c3-c3nn[nH]n3)cc2)CCNC1 [Example 547, 3-[4-[(3S)-3-aminopyrrolidin-3-yl]phenyl]-2-(2H-tetrazol-5-yl)-6-(trifluoromethyl)benzenesulfonamide] | 9.14 | 9.32 | 1.18 | 6.25 | 3.125 | 6.25 |  |  | 
NC1CC(N2CCC(c3ccc(-c4ccc(C(F)(F)F)c(S(N)(=O)=O)c4-c4nnn[nH]4)cc3)CC2)C1 (stereo not drawn) [Example 790, 4′-[1-(3-aminocyclobutyl)piperidin-4-yl]-2-(1H-tetrazol-5-yl)-4-(trifluoromethyl)biphenyl-3-sulfonamide] |  |  |  |  |  |  | 0.871 | 3.57 | IC50 (VIM-1; [12]): 7.26 nM; Escherichia coli MITC95 [1, 13]: 0.7813 µM; Serratia marcescens MITC95 [2, 14]: 3.125 µM; Klebsiella pneumoniae MITC95 [3, 15]: 12.5 µM
Nc1nccc2ccc(-c3cccc(S(N)(=O)=O)c3-c3nnn[nH]3)cc12 [Example 400, 3-(1-aminoisoquinolin-7-yl)-2-(1H-tetrazol-5-yl)benzenesulfonamide] |  |  |  |  |  |  |  |  | IC50 (IMP-1; [16]): 166 nM; IC50 (NDM-1; [17]): 1.64 nM; IC50 (VIM-1; VIM-1 IC50, VIM-1 enzyme, CCF2-FA fluorescence assay): 18.4 nM; Escherichia coli MITC95 [1, 18]: 0.25 µM; Serratia marcescens MITC95 [2, 19]: 12.5 µM; Klebsiella pneumoniae MITC95 [3, 20]: 6.25 µM
NS(=O)(=O)c1cccc(-c2cnc3nc(C(F)(F)F)ccn23)c1-c1nnn[nH]1 [Example 650, 2-(1H-tetrazol-5-yl)-3-[7-(trifluoromethyl)imidazo[1,2-a]pyrimidin-3-yl]benzenesulfonamide] | 1260 | 22.1 | 46.8 | 1.563 | 100 | 50 |  |  | 
NC1CCC(N2CC(c3ccc(-c4ccc(C(F)(F)F)c(S(N)(=O)=O)c4-c4nnn[nH]4)cc3)C2)C1 (stereo not drawn) [Example 808, 4′-[1-(3-aminocyclopentyl)azetidin-3-yl]-2-(1H-tetrazol-5-yl)-4-(trifluoromethyl)biphenyl-3-sulfonamide] |  |  |  |  |  |  | 8.44 | 3.57 | IC50 (VIM-1; [12]): 25.3 nM; Escherichia coli MITC95 [1, 13]: 1.563 µM; Serratia marcescens MITC95 [2, 14]: 3.125 µM; Klebsiella pneumoniae MITC95 [3, 15]: 25 µM
NC1CC(N2CC(c3ccc(-c4ccc(C(F)(F)F)c(S(N)(=O)=O)c4-c4nnn[nH]4)cc3)C2)C1 (stereo not drawn) [Example 807, 4′-[1-(3-aminocyclobutyl)azetidin-3-yl]-2-(1H-tetrazol-5-yl)-4-(trifluuromethyl)biphenyl-3-sulfonamide] |  |  |  |  |  |  | 5.16 | 3.97 | IC50 (VIM-1; [12]): 19.9 nM; Escherichia coli MITC95 [1, 13]: 1.563 µM; Serratia marcescens MITC95 [2, 14]: 6.25 µM; Klebsiella pneumoniae MITC95 [3, 15]: 25 µM
